We go through two compounds from patent publication US7060694B2, “High potency dihydroergotamine compositions” (Pozen Inc., priority 1999, dated 2006).

The format of data set [1] is in vivo, human. The settings on record: after either treatment (MT 300 sc or DHE 45 im), LLOQ 50 pg/ml. Here is the method: The study described above in Example 2 utilizes an incomplete crossover design. This protocol is amended to provide a direct comparison of the tolerance and pharmacokinetics of a 2 mg/ml (2.9 mM) formulation of MT 300 (Formulation A-2) and DHE 45®. The present experiment is a randomized, open-label, two period, […], crossover study comparing subcutaneous administration of 1.2 mg of MT 300 and intramuscular administration of 1 mg of DHE 45®. Plasma dihydroergotamine and the 8-hydroxydihydroergotamine metabolite are measured with an LC/MS/MS method, with a LLOQ of 50 pg/ml for both DHE and 8-OH DHE. Serial blood samples are collected for 72 hours after the dose. Seven of 8 subjects complete this study. One subject withdraws from the study due to difficulty in obtaining the blood samples. The adverse event profile is similar to that observed in the study of Example 2.

A short description of data set [2]: Solubility of DHE in aqueous formulations with caffeine.
For data set [3] the following is noted: DHE given subcutaneously at 1.5 mM; cited from earlier work.
A short description of data set [4]: Animal studies of DHE absorption with caffeine. The data set is classed as in vivo. The settings on record: caffeine at 10:1 weight ratio relative to DHE.
Data set [5] in a line: Example 4: overall tolerance profile (adverse events) of subjects administered DHE. It is filed as in vivo, human. The settings on record: DHE concentration increased from 1.5 mM to 2.9 mM or more, total quantity of DHE constant. The source says: Adverse events occur in 20 of 33 subjects treated with MT 300 and 8 of 13 subjects treated with DHE 45®.

Consider 8-hydroxydihydroergotamine [8-OH DHE], for which the “plasma levels of 8-OH DHE metabolite” value in data set [1] was “No significant levels”.
With `CN1C[C@H](C(=O)N[C@]2(C)O[C@@]3(O)[C@@H]4CCCN4C(=O)[C@H](Cc4ccccc4)N3C2=O)C[C@@H]2c3cccc4[nH]cc(c34)C[C@H]21` [DHE, Dihydroergotamine], in data set [2], the “solubility of DHE in aqueous formulations” value was “greatly increases the solubility”. In addition, the “nausea in treated patients” value in data set [3] is roughly 16%. In data set [4], the drug absorption characteristics entry was “improves drug absorption characteristics”. Also, the “side effects, particularly nausea” value in data set [5] is “reduced”.
